PubChem BioAssay AID330 (DTP/NCI, 2004)
Toxic doses and inconclusive results are not listed. How the source made its calls: active means survival T/C of 150% or more; inactive means T/C below 125% in these data.

System: P388 leukemia ip, CD2F1 mice, survival T/C
Test: NCI In Vivo Anticancer Drug Screen. Data for tumor model P388 Leukemia (intraperitoneal) in CD2F1 (CDF1) mice
Settings: endpoint: median survival time, higher = longer survival
How it was run: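 Mice carrying the transplanted tumor received test compound or vehicle. Survival was recorded in each group, and the value is the treated-group measurement divided by that of the vehicle-treated control group.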

Measured: T/C

CC(CC(=O)O)C(N)C(=O)O (centres undefined)
inactive: dose: 50.0 mg/kg/injection, schedule: Q01DX005 (ip), vehicle: saline 96 % of control | dose: 50.0 mg/kg/injection, schedule: Q01DX009 (ip), vehicle: saline 92 % of control | dose: 100.0 mg/kg/injection, schedule: Q01DX005 (ip), vehicle: saline 95 % of control | dose: 100.0 mg/kg/injection, schedule: Q01DX009 (ip), vehicle: saline 91 % of control | dose: 200.0 mg/kg/injection, schedule: Q01DX005 (ip), vehicle: saline 101 % of control | dose: 200.0 mg/kg/injection, schedule: Q01DX009 (ip), vehicle: saline 92 % of control

CCO/C(=C\C(=O)c1ccccc1)c1ccccc1
inactive: dose: 50.0 mg/kg/injection, schedule: Q04DX003 (ip), vehicle: saline with Tween-80 100 % of control | dose: 100.0 mg/kg/injection, schedule: Q04DX003 (ip), vehicle: saline with Tween-80 100 % of control | dose: 200.0 mg/kg/injection, schedule: Q04DX003 (ip), vehicle: saline with Tween-80 100 % of control
